From patent publication US20120129939A1, “POLYAMINE INHIBITORS FOR THE TREATMENT AND PREVENTION OF PARKINSON'S DISEASE” (priority 2009, published 2012)
“Also recorded” adds a separate entry of the source.

What was measured:
[1] = system: transgenic mice (Line 61) expressing wildtype human α-synuclein; assay: α-Synuclein transgenic mice, intraventricular infusion, immunohistochemical analysis of α-synuclein accumulation and neurodegeneration; assay type: in vivo; conditions: for overall α-synuclein pathology / PD phenotype / neuronal accumulation of α-synuclein in the basal ganglia (mean α-synuclein cell pixel intensity, caudo-putamen) / dendritic complexity in the basal ganglia as detected by MAP2 (% of neuropil covered by MAP2 immunoreactive dendrites) / tyrosine hydroxylase (TH) fibers (TH corrected optical density in the caudo-putamen): infusion via osmotic minipumps six weeks; for neuronal accumulation of α-synuclein in the basal ganglia (mean α-synuclein cell pixel intensity, caudo-putamen): DENSPM 62 μM, Berenil 30 μM; for neuronal accumulation of α-synuclein in the basal ganglia (mean α-synuclein cell pixel intensity, caudo-putamen) / mean α-synuclein cell pixel intensity in the substantia nigra: compared to transgenic mice treated with PBS; for dendritic complexity in the basal ganglia as detected by MAP2 (% of neuropil covered by MAP2 immunoreactive dendrites) / tyrosine hydroxylase (TH) fibers (TH corrected optical density in the caudo-putamen): compared to syntgPBS; for mean α-synuclein cell pixel intensity in the substantia nigra: infusion via osmotic pumps six weeks
Description: α-Synuclein transgenic mice and infusion: For this study, heterozygous transgenic (tg) mice (Line 61) expressing wildtype human α-synuclein (hα-syn) under the regulatory control of the mThy1 promoter were used (Rockenstein, E. et al. 2002). These animals were selected because they display abnormal accumulation of detergent-insoluble hα-syn and develop hα-syn-immunoreactive inclusion like structures in the basal ganglia, cortex, and limbic system (Rockentein, E. et al. 2002). Furthermore, these animals also display neurodegenerative and motor deficits that mimic certain aspects of PD and Dementia with Lewy bodies (Fleming, S. et al. 2004). Infusions were performed as previously described (Veinbergs, I. et al. 2001). In order to evaluate the effects of the polyamine pathway, hα-syn tg mice (10-11 months old) received intraventricular infusions with a cannula implanted into the skull and connected to osmotic minipumps of either vehicle, Beneril, or DENSPM. A total of 15 hu-syn tg mice (n=5 per group) were used for these experiments. Mice were treated for six weeks; the compounds were dissolved in 0.9% NaCl at a concentration of 62 μM for DENSPM and 30 μM for Berenil at a pH of 7.2. Then, 200 μL of these solutions were filled into the osmotic minipump (Alzet) ensuring constant delivery ([…]). The minipump was implanted subcutaneously on the back under light anesthesia. An additional group of control non tg (n=5) mice were implanted with minipumps filled with vehicle only. All procedures were completed under the specifications set forth by the Institutional Animal Care and Use Committee.
Brains were removed and divided sagittally. One hemibrain was postfixed in phosphate-buffered 4% paraformaldehyde, pH 7.4, at 4° C. for 48 h and sectioned at 40 μm with a Vibratome 2000 (Leica) and placed in cryosolution, whereas the other hemibrain was snap frozen and stored at −70° C. for further analysis. Sections were first washed 3×5 minutes each in PBS. They were then pretreated with 1% Triton-X, 3% hydrogen peroxide in PBS for 15 minutes, washed again 3×5 min in PBS and blocked in 10% serum matching the animal the secondary antibody was raised in for 1 hour and then washed in PBS. Sections were then placed in primary antibody: mouse anti-TH, rabbit anti-(h) α-syn, mouse anti-MAP2 (Chemicon, (1:500)) overnight in 4° C. Sections were washed 3×5 min in PBS and then placed in biotynilated secondary antibody (1:100) (Vector Laboratories) for 2 hours. After washing again 3 times in PBS, sections were placed in 20% […] (DAB) (Vector Laboratories) for 20 seconds. The reaction with DAB was halted by immersing the sections in double distilled water. Sections were then mounted, dried and coverslipped with Entillin (Fisher Scientific). Sections for fluorescent immunohistochemistry were treated with mouse monoclonal anti-microtuble-associated protein 2 (MAP2, 1:50, Roche Molecular Biochemicals) primary antibody. This antibody was then detected with the fluorescein isothiocyanate (FITC)-conjugated anti-mouse secondary antibody (Vector Laboratories). Coverslips were air-dried overnight, mounted on slides with anti-fading media (Vectashield, Vector Laboratories), and imaged with the LSCM (MRC 1024, Bio-Rad). The immunolabeled blind-coded sections were imaged by LSCM (MRC1024, Bio-Rad) and analyzed with the Image 1.43 program (NIH), as previously described (Fleming, S. et al. 2004).

SAT1 = SAT1 (Homo sapiens, UniProt P21673); conditions: literature; cited from earlier work
[2] = system: Murine L1210 leukemia cells; assay: Polyamine determinations (HPLC) in cultured cells treated with DFMO or DFMO analogs; assay type: cell-based; set-up: PUT (amount): unit not given beside the values; SPD (amount) / SPM (amount) / [PUT] (concentration) / [SPD] (concentration) / [SPM] (concentration) / 48 hr avg put / 48 hr avg spd: unit not given here
Description: Cell Growth. […] After 24 or 48 h, cells were removed from tubes for counting and viability determinations. Cell number was determined by electronic particle counting (Model 2F Coulter Counter; Coulter Electron-ics, Hialeah, Fla.) and confirmed periodically with hemocytometer measurements. […] The percentage of control growth was determined as follows. Cell samples were washed twice in cold PBS, and an aliquot of […] was removed for polyamine determination. The cells were pelleted, and the PBS supernatant was carefully removed with a cotton swab. […] The supernatant was frozen at -20° C. until analysis by HPLC. […] The column temperature was maintained at 65° C. with water from a circulating bath. The column was eluted at a flow rate of 16 ml/h with an initial column pressure of 500 psi which decreased with increasing ionic strength of the elution buffer. […] The column was reequilibrated for 10 min with Buffer 1 prior to loading the next sample. The column eluate was derivatized with 0.05% o-phthalaldehyde (Durrum Chemical Corp.) in 0.4M borate buffer (pH 10.4) containing […] and 0.09% Brij 35. The o-phthalaldehyde reagent flow rate was 8 ml/h. The derivatized eluate was analyzed for polyamine content by passing it through the flow cell of a […] (Fluoro-Monitor; American Instrument Co., Silver Spring, Md.) with a fixed excitation wavelength of 360 nm and emission wavelength of […]. Data were analyzed using a Hewlett Packard Model […] automation system.

[3] = 10 uM treatment, 24 hr treatment
[4] = 10 uM treatment, 48 hour treatment
[5] = 50 uM treatment, 24 hr treatment
[6] = 50 uM treatment, 48 hour treatment
[7] = 100 uM treatment, 24 hr treatment
[8] = 100 uM treatment, 48 hour treatment
[9] = average of 10, 50, 100 uM treatments, 24 hour treatment
[10] = average of 10, 50, 100 uM treatments, 48 hour treatment

Sequence of SAT1 (P21673 whole entry): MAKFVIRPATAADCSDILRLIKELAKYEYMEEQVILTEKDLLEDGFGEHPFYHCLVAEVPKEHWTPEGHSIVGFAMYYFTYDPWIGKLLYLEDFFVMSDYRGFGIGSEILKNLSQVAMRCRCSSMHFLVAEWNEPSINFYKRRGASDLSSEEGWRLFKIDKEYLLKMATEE

CC(=O)NCC(=O)O.CC(=O)NCC(=O)O.N=C(N)c1ccc(N=NNc2ccc(C(=N)N)cc2)cc1 [Berenil, diminazene aceturate]
overall α-synuclein pathology / PD phenotype [1]: worsened
neuronal accumulation of α-synuclein in the basal ganglia (mean α-synuclein cell pixel intensity, caudo-putamen) [1]: increased
dendritic complexity in the basal ganglia as detected by MAP2 (% of neuropil covered by MAP2 immunoreactive dendrites) [1]: worsened; also recorded: decrease
tyrosine hydroxylase (TH) fibers (TH corrected optical density in the caudo-putamen) [1]: worsened; also recorded: decreased
mean α-synuclein cell pixel intensity in the substantia nigra [1]: increased
SAT1 activity (SAT1): reduces

CCNCCCNCCCNCCCNCC [DENSPM, N1, N11-diethylnorspermine]
overall α-synuclein pathology / PD phenotype [1]: partially rescued; also recorded: partially improved
neuronal accumulation of α-synuclein in the basal ganglia (mean α-synuclein cell pixel intensity, caudo-putamen) [1]: decreased
dendritic complexity in the basal ganglia as detected by MAP2 (% of neuropil covered by MAP2 immunoreactive dendrites) [1]: ameliorated; also recorded: rescued
tyrosine hydroxylase (TH) fibers (TH corrected optical density in the caudo-putamen) [1]: partially rescued; also recorded: increased
mean α-synuclein cell pixel intensity in the substantia nigra [1]: trending decrease
SAT1 activity (SAT1): increases

CCOC(=O)C(N)(CCCN)C(F)F (centres unmarked) [DFMO Analog 1]
PUT (amount) [2, 3]: 14507
SPD (amount) [2, 3]: 1202403
SPM (amount) [2, 3]: 149654
[PUT] (concentration) [2, 3]: 0.007061
[SPD] (concentration) [2, 3]: 0.2484
[SPM] (concentration) [2, 3]: 0.4836
PUT (amount) [2, 4]: 43116
SPD (amount) [2, 4]: 1887299
SPM (amount) [2, 4]: 2659801
[PUT] (concentration) [2, 4]: 0.02099
[SPD] (concentration) [2, 4]: 2.316
[SPM] (concentration) [2, 4]: 8.595
SPD (amount) [2, 5]: 163914
SPM (amount) [2, 5]: 168544
[PUT] (concentration) [2, 5]: 0
[SPD] (concentration) [2, 5]: 0.2012
[SPM] (concentration) [2, 5]: 0.5447
PUT (amount) [2, 6]: 23355
SPD (amount) [2, 6]: 1774662
SPM (amount) [2, 6]: 4106905
[PUT] (concentration) [2, 6]: 0.01137
[SPD] (concentration) [2, 6]: 2.178
[SPM] (concentration) [2, 6]: 13.27
SPD (amount) [2, 7]: 377626
SPM (amount) [2, 7]: 500166
[SPD] (concentration) [2, 7]: 0.4635
[SPM] (concentration) [2, 7]: 1.616
SPD (amount) [2, 8]: 332304
SPM (amount) [2, 8]: 1568383
[PUT] (concentration) [2, 8]: 0
[SPD] (concentration) [2, 8]: 0.4078
[SPM] (concentration) [2, 8]: 5.068
24 hr avg put [2, 9]: 0.002354
24 hr avg spd [2, 9]: 0.3043
24 hr avg spm [2, 9]: 0.8815
48 hr avg put [2, 10]: 0.01078
48 hr avg spd [2, 10]: 1.634
48 hr avg spm [2, 10]: 8.978
